Assay results reported in patent US20230085307A1, “PYRIDAZINONE COMPOUND AND HERBICIDE” (NISSAN CHEMICAL CORPORATION, priority 2019, published 2023).

Experiments:
late watergrass = assay: Test Example 1: herbicidal activity, application before weed generation under submerged conditions (Table 16, symbol A); assay type: in vivo, late watergrass (Echinochloa oryzicola); settings: amount of applied herbicide 320 g/ha
In short: (§1)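 Submerged Wagner pots (alluvial soil, 4 cm water) sown with weed seeds and planted with 2.5-leaf rice seedlings; emulsifiable concentrate diluted in water applied to water surface on sowing day. Held in greenhouse at 25-30 °C; injury scored 0-5 by herbicidal rate after three weeks.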

Japanese bulrush = assay: Test Example 1: herbicidal activity, application before weed generation under submerged conditions (Table 16, symbol B); assay type: in vivo, Japanese bulrush (Schoenoplectus juncoides); settings: amount of applied herbicide 320 g/ha
In short: as §1

oval-leafed pondweed = assay: Test Example 1: herbicidal activity, application before weed generation under submerged conditions (Table 16, symbol C); assay type: in vivo, oval-leafed pondweed (Monochoria vaginalis); settings: amount of applied herbicide 320 g/ha
In short: as §1

barnyard grass [1] = assay: Test Example 3: herbicidal effect by foliage application, Wagner pot (Table 18, symbol H); assay type: in vivo, barnyard grass (Echinochloa crus-galli); settings: 320 g/ha
In short: (§2)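 Plants were sown in alluvial soil held under 0.1–0.5 cm standing water and grown 14 days in a greenhouse at 25–30 °C. An emulsifiable formulation, water-diluted to the set dose, was then sprayed onto the foliage, and effects were scored three weeks later using previously defined criteria.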

Chinese sprangletop = assay: Test Example 3: herbicidal effect by foliage application, Wagner pot (Table 18, symbol D); assay type: in vivo, chinese sprangletop (Leptochloa chinensis); settings: 320 g/ha
In short: as §2

rice flat sedge = assay: Test Example 3: herbicidal effect by foliage application, Wagner pot (Table 18, symbol E); assay type: in vivo, rice flat sedge (Cyperus iria); settings: 320 g/ha
In short: as §2

southern crabgrass [2] = assay: Test Example 4: herbicidal effect by soil treatment (Table 19, symbol F); assay type: in vivo, southern crabgrass (Digitaria ciliaris); settings: amount of applied herbicide 320 g/ha
In short: (§3)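 Step 1: sow seeds in sterilized diluvial soil, cover ~1.5 cm. Step 2: spray diluted emulsion onto soil surface at predetermined rate. Step 3: greenhouse, 25–30° C, three weeks. Step 4: grade effect on each plant by earlier criteria.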

green foxtail [3] = assay: Test Example 4: herbicidal effect by soil treatment (Table 19, symbol G); assay type: in vivo, green foxtail (Setaria viridis); settings: amount of applied herbicide 320 g/ha
In short: as §3

barnyard grass [4] = assay: Test Example 4: herbicidal effect by soil treatment (Table 19, symbol H); assay type: in vivo, barnyard grass (Echinochloa crus-galli); settings: amount of applied herbicide 320 g/ha
In short: as §3

wild oat [5] = assay: Test Example 4: herbicidal effect by soil treatment (Table 19, symbol I); assay type: in vivo, wild oat (Avena fatua); settings: amount of applied herbicide 320 g/ha
In short: as §3

blackgrass [6] = assay: Test Example 4: herbicidal effect by soil treatment (Table 19, symbol J); assay type: in vivo, blackgrass (Alopecurus myosuroides); settings: amount of applied herbicide 320 g/ha
In short: as §3

Italian ryegrass [7] = assay: Test Example 4: herbicidal effect by soil treatment (Table 19, symbol K); assay type: in vivo, Italian ryegrass (Lolium multiflorum); settings: amount of applied herbicide 320 g/ha
In short: as §3

windgrass [8] = assay: Test Example 4: herbicidal effect by soil treatment (Table 19, symbol L); assay type: in vivo, windgrass (Apera spica-venti); settings: amount of applied herbicide 320 g/ha
In short: as §3

velvetleaf [9] = assay: Test Example 4: herbicidal effect by soil treatment (Table 19, symbol M); assay type: in vivo, velvetleaf (Abutilon theophrasti); settings: amount of applied herbicide 320 g/ha
In short: as §3

redroot pigweed [10] = assay: Test Example 4: herbicidal effect by soil treatment (Table 19, symbol N); assay type: in vivo, redroot pigweed (Amaranthus retroflexus); settings: amount of applied herbicide 320 g/ha
In short: as §3

lambsquarters [11] = assay: Test Example 4: herbicidal effect by soil treatment (Table 19, symbol O); assay type: in vivo, lambsquarters (Chenopodium album); settings: amount of applied herbicide 320 g/ha
In short: as §3

chickweed [12] = assay: Test Example 4: herbicidal effect by soil treatment (Table 19, symbol P); assay type: in vivo, common chickweed (Stellaria media); settings: amount of applied herbicide 320 g/ha
In short: as §3

persian speedwell [13] = assay: Test Example 4: herbicidal effect by soil treatment (Table 19, symbol R); assay type: in vivo, Persian speedwell (Veronica persica); settings: amount of applied herbicide 320 g/ha
In short: as §3

southern crabgrass [14] = assay: Test Example 5: herbicidal effect by foliage application, plastic box (Table 20, symbol F); assay type: in vivo, southern crabgrass (Digitaria ciliaris); settings: amount of applied herbicide 320 g/ha; foliage application after 14-day growth; evaluated three weeks after application
In short: (§4)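 Foliar spray test: emulsion formulation diluted in water to a set application rate, sprayed onto 14-day-old plants raised in diluvial soil at 25° C to 30° C under glass. Both herbicidal effect and crop effect rated visually three weeks later.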

green foxtail [15] = assay: Test Example 5: herbicidal effect by foliage application, plastic box (Table 20, symbol G); assay type: in vivo, green foxtail (Setaria viridis); settings: amount of applied herbicide 320 g/ha; foliage application after 14-day growth; evaluated three weeks after application
In short: as §4

barnyard grass [16] = assay: Test Example 5: herbicidal effect by foliage application, plastic box (Table 20, symbol H); assay type: in vivo, barnyard grass (Echinochloa crus-galli); settings: amount of applied herbicide 320 g/ha; foliage application after 14-day growth; evaluated three weeks after application
In short: as §4

wild oat [17] = assay: Test Example 5: herbicidal effect by foliage application, plastic box (Table 20, symbol I); assay type: in vivo, wild oat (Avena fatua); settings: amount of applied herbicide 320 g/ha; foliage application after 14-day growth; evaluated three weeks after application
In short: as §4

blackgrass [18] = assay: Test Example 5: herbicidal effect by foliage application, plastic box (Table 20, symbol J); assay type: in vivo, blackgrass (Alopecurus myosuroides); settings: amount of applied herbicide 320 g/ha; foliage application after 14-day growth; evaluated three weeks after application
In short: as §4

Italian ryegrass [19] = assay: Test Example 5: herbicidal effect by foliage application, plastic box (Table 20, symbol K); assay type: in vivo, Italian ryegrass (Lolium multiflorum); settings: amount of applied herbicide 320 g/ha; foliage application after 14-day growth; evaluated three weeks after application
In short: as §4

windgrass [20] = assay: Test Example 5: herbicidal effect by foliage application, plastic box (Table 20, symbol L); assay type: in vivo, windgrass (Apera spica-venti); settings: amount of applied herbicide 320 g/ha; foliage application after 14-day growth; evaluated three weeks after application
In short: as §4

velvetleaf [21] = assay: Test Example 5: herbicidal effect by foliage application, plastic box (Table 20, symbol M); assay type: in vivo, velvetleaf (Abutilon theophrasti); settings: amount of applied herbicide 320 g/ha; foliage application after 14-day growth; evaluated three weeks after application
In short: as §4

redroot pigweed [22] = assay: Test Example 5: herbicidal effect by foliage application, plastic box (Table 20, symbol N); assay type: in vivo, redroot pigweed (Amaranthus retroflexus); settings: amount of applied herbicide 320 g/ha; foliage application after 14-day growth; evaluated three weeks after application
In short: as §4

lambsquarters [23] = assay: Test Example 5: herbicidal effect by foliage application, plastic box (Table 20, symbol O); assay type: in vivo, lambsquarters (Chenopodium album); settings: amount of applied herbicide 320 g/ha; foliage application after 14-day growth; evaluated three weeks after application
In short: as §4

chickweed [24] = assay: Test Example 5: herbicidal effect by foliage application, plastic box (Table 20, symbol P); assay type: in vivo, common chickweed (Stellaria media); settings: amount of applied herbicide 320 g/ha; foliage application after 14-day growth; evaluated three weeks after application
In short: as §4

false cleavers = assay: Test Example 5: herbicidal effect by foliage application, plastic box (Table 20, symbol Q); assay type: in vivo, false cleavers (Galium spurium); settings: amount of applied herbicide 320 g/ha; foliage application after 14-day growth; evaluated three weeks after application
In short: as §4

persian speedwell [25] = assay: Test Example 5: herbicidal effect by foliage application, plastic box (Table 20, symbol R); assay type: in vivo, Persian speedwell (Veronica persica); settings: amount of applied herbicide 320 g/ha; foliage application after 14-day growth; evaluated three weeks after application
In short: as §4

COc1ccccc1-c1sc2cc(F)c(F)cc2c1-c1c(O)c(C)nn(C)c1=O [5-011]
Herbicidal effect, A: late watergrass (late watergrass): 2 (Herbicidal rate of 20% or more and less than 40%) | Herbicidal effect, B: Japanese bulrush (Japanese bulrush): 2 (Herbicidal rate of 20% or more and less than 40%) | Herbicidal effect, C: oval-leafed pondweed (oval-leafed pondweed): 0 (Herbicidal rate of 5% or less (almost no effect)) | herbicidal effect on barnyard grass (H) (barnyard grass [1]): 5 (Herbicidal rate of 90% or more (almost completely withered)) | herbicidal effect on Chinese sprangletop (D) (Chinese sprangletop): 3 (Herbicidal rate of 40% or more and less than 70%) | herbicidal effect on rice flat sedge (E) (rice flat sedge): 5 (Herbicidal rate of 90% or more (almost completely withered)) | F: southern crabgrass, herbicidal effect grade (southern crabgrass [2]): 3 (Herbicidal rate of 40% or more and less than 70%) | G: green foxtail, herbicidal effect grade (green foxtail [3]): 4 (Herbicidal rate of 70% or more and less than 90%) | H: barnyard grass, herbicidal effect grade (barnyard grass [4]): 4 (Herbicidal rate of 70% or more and less than 90%) | I: wild oat, herbicidal effect grade (wild oat [5]): 0 (Herbicidal rate of 5% or less (almost no effect)) | J: blackgrass, herbicidal effect grade (blackgrass [6]): 3 (Herbicidal rate of 40% or more and less than 70%) | K: Italian ryegrass, herbicidal effect grade (Italian ryegrass [7]): 3 (Herbicidal rate of 40% or more and less than 70%) | L: windgrass, herbicidal effect grade (windgrass [8]): 4 (Herbicidal rate of 70% or more and less than 90%) | M: velvetleaf, herbicidal effect grade (velvetleaf [9]): 5 (Herbicidal rate of 90% or more (almost completely withered)) | N: redroot pigweed, herbicidal effect grade (redroot pigweed [10]): 5 (Herbicidal rate of 90% or more (almost completely withered)) | O: lambsquarters, herbicidal effect grade (lambsquarters [11]): 5 (Herbicidal rate of 90% or more (almost completely withered)) | P: chickweed, herbicidal effect grade (chickweed [12]): 3 (Herbicidal rate of 40% or more and less than 70%) | R: persian speedwell, herbicidal effect grade (persian speedwell [13]): 5 (Herbicidal rate of 90% or more (almost completely withered)) | Herbicidal effect by foliage application, F: southern crabgrass (southern crabgrass [14]): 2 (Herbicidal rate of 20% or more and less than 40%) | Herbicidal effect by foliage application, G: green foxtail (green foxtail [15]): 5 (Herbicidal rate of 90% or more (almost completely withered)) | Herbicidal effect by foliage application, H: barnyard grass (barnyard grass [16]): 4 (Herbicidal rate of 70% or more and less than 90%) | Herbicidal effect by foliage application, I: wild oat (wild oat [17]): 3 (Herbicidal rate of 40% or more and less than 70%) | Herbicidal effect by foliage application, J: blackgrass (blackgrass [18]): 3 (Herbicidal rate of 40% or more and less than 70%) | Herbicidal effect by foliage application, K: Italian ryegrass (Italian ryegrass [19]): 3 (Herbicidal rate of 40% or more and less than 70%) | Herbicidal effect by foliage application, L: windgrass (windgrass [20]): 4 (Herbicidal rate of 70% or more and less than 90%) | Herbicidal effect by foliage application, M: velvetleaf (velvetleaf [21]): 5 (Herbicidal rate of 90% or more (almost completely withered)) | Herbicidal effect by foliage application, N: redroot pigweed (redroot pigweed [22]): 5 (Herbicidal rate of 90% or more (almost completely withered)) | Herbicidal effect by foliage application, O: lambsquarters (lambsquarters [23]): 4 (Herbicidal rate of 70% or more and less than 90%) | Herbicidal effect by foliage application, P: chickweed (chickweed [24]): 5 (Herbicidal rate of 90% or more (almost completely withered)) | Herbicidal effect by foliage application, Q: false cleavers (false cleavers): 5 (Herbicidal rate of 90% or more (almost completely withered)) | Herbicidal effect by foliage application, R: persian speedwell (persian speedwell [25]): 5 (Herbicidal rate of 90% or more (almost completely withered))
